Assay results taken from PubChem BioAssay AID493141 (Sanford-Burnham Center for Chemical Genomics, 2011).
pIC50: −log10 of the molar value. Where “and” joins values, the source holds several entries; their conditions need not be identical. Equal entries are not always repeated. Calls of active or inactive are those of the source. No rule for the calls is given here.

Target: Alkaline phosphatase, tissue-nonspecific isozyme (Homo sapiens) (UniProt P05186)
Experiment: human TNAP enzyme inhibitors, SAR follow-up, selectivity assay for human IAP inhibitor project, biochemical (AID 493141)
Conditions: isolated enzyme, CDP-Star luminescence, 30 min

Alkaline phosphatase, tissue-nonspecific isozyme (Homo sapiens), sequence (P05186 whole entry, looked up): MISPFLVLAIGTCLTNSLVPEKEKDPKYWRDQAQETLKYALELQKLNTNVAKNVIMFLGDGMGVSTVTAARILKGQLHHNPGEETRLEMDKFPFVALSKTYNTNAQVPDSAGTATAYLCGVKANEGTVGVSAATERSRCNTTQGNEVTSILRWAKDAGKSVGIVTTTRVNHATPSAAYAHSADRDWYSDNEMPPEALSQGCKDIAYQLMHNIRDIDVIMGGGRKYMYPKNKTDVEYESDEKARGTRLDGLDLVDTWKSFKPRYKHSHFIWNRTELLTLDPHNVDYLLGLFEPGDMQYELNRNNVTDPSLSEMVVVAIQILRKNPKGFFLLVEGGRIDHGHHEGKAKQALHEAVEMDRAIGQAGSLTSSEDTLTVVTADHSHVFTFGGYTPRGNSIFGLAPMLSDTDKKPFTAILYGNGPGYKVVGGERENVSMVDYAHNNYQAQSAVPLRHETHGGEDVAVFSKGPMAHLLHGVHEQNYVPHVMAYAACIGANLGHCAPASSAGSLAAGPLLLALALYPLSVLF

Row | SMILES | IC50 | pIC50
1 | N#CCCn1cc(/C=N/N=C2/NC(=O)C(CC(=O)O)S2)c(-c2ccc(F)cc2)n1 (stereo not given) | > 100 µM (inactive) | 
2 | COc1cc(C=NN=C2SC(CC(=O)O)C(=O)N2c2ccc(O)cc2)ccc1O (stereo not given) | > 100 µM (inactive) | 
3 | O=[N+]([O-])c1ccccc1NC(=S)NN=Cc1ccc(O)c(O)c1 |  | 4.37
4 | COC(=O)/C=C1/S/C(=N/N=Cc2ccc(N(C)C)cc2)NC1=O | > 100 µM (inactive) | 
5 | COc1cc([N+](=O)[O-])ccc1NC(=S)NCCC(c1ccccc1)c1ccccc1 | > 100 µM (inactive) | 
6 | S=C(NCCC(c1ccccc1)c1ccccc1)Nc1ccc(Cl)cc1Cl | > 100 µM (inactive) | 
7 | COc1cc(/C=N/N=C2/SCC(=O)N2c2ccc(O)cc2)ccc1O | > 100 µM (inactive) | 
8 | CCOc1cc(/C=N/N=C2\NC(=O)C(CC(=O)O)S2)ccc1O (stereo not given) | > 100 µM (inactive) | 
9 | COC(=O)/C=C1\SC(N=Nc2c(O)[nH]c3ccccc23)=NC1=O | > 100 µM (inactive) | 
10 | CC(C)(C)c1ccc(/C=N/N=C2\NC(=O)C(CC(=O)O)S2)cc1 (stereo not given) | > 100 µM (inactive) | 
11 | Cc1cc(=O)oc2cc(NC(=S)NCCC(c3ccccc3)c3ccccc3)ccc12 | > 100 µM (inactive) | 
12 | O=[N+]([O-])c1ccc(NC(=S)NCCC(c2ccccc2)c2ccccc2)cc1 | > 100 µM (inactive) | 
13 | COC(=O)/C=C1/S/C(=N/NC(=O)c2ccccc2C)NC1=O | > 100 µM (inactive) | 
14 | COc1ccc(NC(=S)NCCC(c2ccccc2)c2ccccc2)cc1 | > 100 µM (inactive) | 
15 | COc1cc(C=NNC(=S)Nc2cccc(S(=O)(=O)N(C)C)c2)cc(OC)c1O | > 100 µM (inactive) | 
16 | COc1cc(C=NNC(=S)Nc2cccc(S(=O)(=O)N(C)C)c2)ccc1O | > 100 µM (inactive) | 
17 | COc1ccc(C=NNC(=S)Nc2ccccc2[N+](=O)[O-])cc1O | > 100 µM (inactive) | 
18 | COC(=O)/C=C1/S/C(=N/NC(=O)c2ccccc2)NC1=O | > 100 µM (inactive) | 
19 | COc1ccc(-c2csc(Nc3cccc4ccccc34)n2)cc1 | > 100 µM (inactive) | 
20 | COc1ccc(-c2csc(Nc3cccc4ccccc34)n2)cc1F | > 100 µM (inactive) | 
21 | COC(=O)/C=C1\S/C(=N/N=C/c2ccc(Cl)cc2)NC1=O | > 100 µM (inactive) | 

Row | SMILES | IC50 | pIC50
22 | O=S(=O)(c1ccc(NC(=S)N/N=C/c2ccc(O)c(O)c2O)cc1)N1CCOCC1 | > 100 µM (inactive) | 
23 | O=S(=O)(c1ccc(NC(=S)N/N=C/c2ccc(O)c(O)c2)cc1)N1CCOCC1 |  | 4.85
24 | Cc1ccc(-c2ccc(/C=N/N=C3\NC(=O)C(CC(=O)O)S3)o2)c([N+](=O)[O-])c1 (stereo not given) | > 100 µM (inactive) | 
25 | O=[N+]([O-])c1ccccc1NC(=S)N/N=C/c1ccc(O)c(O)c1O |  | 4.06
26 | COc1ccc(C=Nn2c(=S)n(C)c3ccccc32)cc1OC | > 100 µM (inactive) | 
27 | O=C(O)CC1S/C(=N/N=C/c2ccco2)NC1=O (stereo not given) | > 100 µM (inactive) | 
28 | CCOc1cc(C=N/N=C2/NC(=O)C(CC(=O)O)S2)ccc1OCc1ccccc1Cl (stereo not given) | > 100 µM (inactive) | 
29 | CCOc1cc(C=NNC(=S)NC2CCCCC2)ccc1O | > 100 µM (inactive) | 
30 | COc1ccc(/C=N/N=C2\NC(=O)C(CC(=O)O)S2)c(OC)c1 (stereo not given) | > 100 µM (inactive) | 
31 | COc1cc(C(=O)NNC(=S)Nc2ccc(S(N)(=O)=O)cc2)cc(OC)c1OC | > 100 µM (inactive) | 
32 | COC(=O)/C=C1/S/C(=N/NC(=O)c2ccccc2OC)NC1=O | > 100 µM (inactive) | 
33 | CCN(CC)S(=O)(=O)c1ccc(-c2csc(=Nc3cccc4ccccc34)n2C)cc1 | > 100 µM (inactive) | 
34 | COC(=O)/C=C1\S/C(=N/N=C/CC(=O)OC)NC1=O | > 100 µM (inactive) | 
35 | COc1ccc(/C=N/N=C2/NC(=O)C(CC(=O)O)S2)cc1OC (stereo not given) | > 100 µM (inactive) | 
36 | COC(=O)C/C=N/N=C1\NC(=O)/C(=C/C(=O)O)S1 | > 100 µM (inactive) | 
37 | COc1ccc(C=NN=C2SC(CC(=O)O)C(=O)N2c2ccc(O)cc2)cc1 (stereo not given) | > 100 µM (inactive) | 
38 | FC(F)(F)c1cccc(NC(=S)NCCC(c2ccccc2)c2ccccc2)c1 | > 100 µM (inactive) | 
39 | O=S(=O)(Nc1ncccn1)c1ccc(NC(=S)NCCC(c2ccccc2)c2ccccc2)cc1 | > 100 µM (inactive) | 
40 | COC(=O)/C=C1/S/C(=N/NC(=O)c2ccc(Cl)cc2Cl)NC1=O | > 100 µM (inactive) | 
41 | COc1cc(/C=N/N=C2\NC(=O)C(CC(=O)O)S2)cc(OC)c1OC (stereo not given) | > 100 µM (inactive) | 

More lines, now with the values ahead:

Row | IC50 | pIC50 | SMILES
42 | > 100 µM (inactive) |  | Cc1ccc(Nc2nc(-c3ccc(O)cc3O)cs2)cc1F
43 | > 100 µM (inactive) |  | Cc1cccc(NC(=S)NN=Cc2ccc3c(c2)OCO3)c1
44 |  | 4.29 | Cc1ccc(Cl)cc1Nc1nc(-c2ccc(O)c(O)c2)cs1
45 | > 100 µM (inactive) |  | Cc1cccc(Nc2nc(-c3ccc(O)c(C(N)=O)c3)cs2)c1
46 | > 100 µM (inactive) |  | COc1cc(C=NNC(=S)Nc2cccc(C(=O)O)c2)ccc1O
47 |  | 4.10 | Cc1ccc(Nc2nc(-c3ccc(O)c(O)c3)cs2)cc1F
48 | > 100 µM (inactive) |  | Cc1ccc(Nc2nc(-c3ccc(O)cc3O)cs2)cc1
49 | > 100 µM (inactive) |  | CC(=NNC(=S)Nc1ccccc1)c1ccc2c(c1)OCO2
50 | > 100 µM (inactive) |  | Cc1ccc2nc(NNC(=O)c3ccc4c(c3)OCCO4)sc2c1
51 |  | 5.20 | NS(=O)(=O)c1ccc(Nc2nc(-c3ccc(O)c(O)c3)cs2)cc1
52 | > 100 µM (inactive) |  | Cc1ccc(Nc2nc(-c3ccc(O)c(O)c3)cs2)cc1
53 | > 100 µM (inactive) |  | Cc1cccc2sc(NNC(=O)c3ccc4c(c3)OCCO4)nc12
54 | > 100 µM (inactive) |  | Cn1c(=S)n(N=Cc2ccc3c(c2)OCO3)c2ccccc21
55 | > 100 µM (inactive) and 83.7 µM |  | COc1ccc(Cl)cc1Nc1nc(-c2ccc(O)c(O)c2)cs1
56 | > 100 µM (inactive) |  | COC(=O)/C=C1/S/C(=N/NC(=O)c2ccc(OC)cc2)NC1=O
57 | > 100 µM (inactive) |  | Cc1ccc(Nc2nc(-c3ccc(O)cc3O)cs2)cc1C
58 | > 100 µM (inactive) |  | COc1cccc(Nc2nc(-c3ccc(O)cc3)cs2)c1

Row | IC50 | pIC50 | SMILES
59 | > 100 µM (inactive) |  | Oc1ccc(-c2csc(Nc3ccccc3)n2)c(O)c1
60 | > 100 µM (inactive) |  | Cc1ccc(Nc2nc(-c3ccc(O)c(C(N)=O)c3)cs2)cc1
61 | > 100 µM (inactive) |  | Cc1cc(C)cc(Nc2nc(-c3ccc(O)cc3O)cs2)c1
62 | > 100 µM (inactive) |  | Cc1ccc(C)c(Nc2nc(-c3ccc(O)cc3O)cs2)c1
63 | > 100 µM (inactive) |  | Cc1cccc(C)c1NC(=S)N/N=C/c1ccc(O)c(O)c1O
64 |  | 4.75 | Oc1ccc(Nc2nc(-c3ccc(O)c(O)c3)cs2)cc1
65 | > 100 µM (inactive) |  | COc1cc([N+](=O)[O-])ccc1NC(=S)NNC(=O)c1ccc2c(c1)OCO2
66 | > 100 µM (inactive) |  | Cc1ccc2sc(NNC(=O)c3ccc4c(c3)OCCO4)nc2c1C
67 |  | 4.52 and 4.67 | CCc1ccccc1Nc1nc(-c2ccc(O)c(O)c2)cs1
68 | > 100 µM (inactive) |  | CN(C)S(=O)(=O)c1cccc(NC(=S)NN=Cc2ccc(O)c(O)c2O)c1
69 | 41 µM and > 100 µM (inactive) |  | Cc1c(Cl)cccc1Nc1nc(-c2ccc(O)c(O)c2)cs1
70 | > 100 µM (inactive) |  | CCOc1ccc(Nc2nc(-c3ccc(O)c(O)c3)cs2)cc1
71 |  | 4.65 and 4.55 | Oc1ccc(-c2csc(Nc3cccc4ccccc34)n2)cc1O
72 |  | 4.22 | NS(=O)(=O)c1ccc(Nc2nc(-c3ccc(O)cc3O)cs2)cc1
73 | > 100 µM (inactive) |  | Cc1cccc(NC(=S)NNC(=O)c2ccc3c(c2)OCO3)c1
74 |  | 4.26 | Oc1ccc(-c2csc(Nc3ccc(F)cc3)n2)cc1O
75 |  | 4.22 | Cc1cccc(Nc2nc(-c3ccc(O)c(O)c3)cs2)c1
